Assay results reported in patent US20040038855A1 (priority 1999, published 2004).
Where two headings read alike, the source gives them in different places.

What was measured:
[1] = biological target: T1, human Alpha-1a Adrenergic receptor (Homo sapiens, UniProt P35348); experiment: Binding affinity at the human alpha-1A adrenergic receptor
T1 construct: expressed in transfected cells
T1 sequence (P35348 1-466): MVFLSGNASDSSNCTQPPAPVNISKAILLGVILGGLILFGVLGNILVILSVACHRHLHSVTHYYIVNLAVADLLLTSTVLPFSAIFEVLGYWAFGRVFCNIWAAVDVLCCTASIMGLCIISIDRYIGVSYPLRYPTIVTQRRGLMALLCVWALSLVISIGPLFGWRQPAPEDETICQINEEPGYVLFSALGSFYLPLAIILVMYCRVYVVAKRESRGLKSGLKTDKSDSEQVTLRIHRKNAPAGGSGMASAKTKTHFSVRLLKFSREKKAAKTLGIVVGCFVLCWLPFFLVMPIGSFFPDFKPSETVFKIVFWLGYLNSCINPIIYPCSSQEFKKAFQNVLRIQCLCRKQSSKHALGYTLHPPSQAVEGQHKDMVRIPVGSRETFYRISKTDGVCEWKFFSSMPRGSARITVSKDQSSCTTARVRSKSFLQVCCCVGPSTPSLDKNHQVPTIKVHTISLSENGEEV
Source text: (§1) Other receptors: Cell membranes expressing human dopamine D1, D2, D4 and rat D3 receptors were purchased through BioSignal, Inc. (Montreal, Canada). Binding assays using the histamine H1 receptor; dopamine receptors; and α1A, α1B, and α2 adrenergic receptors may be carried out according to the procedures described in U.S. Pat. No. 5,780,485, the disclosure of which is hereby incorporated by reference in its entirety into this application. Binding assays using the dopamine D5 receptor may be carried out according to the procedures described in U.S. Pat. No. 5,882,855, the disclosure of which is hereby incorporated by reference in its entirety into this application. Binding assays for the human α1D adrenergic receptor may be carried out according to the procedures described in U.S. Pat. No. 6,156,518, the disclosure of which is hereby incorporated by reference in its entirety into this application.

[2] = biological target: T2, human Histamine H1 receptor (Homo sapiens, UniProt P35367); experiment: Binding affinity at the human histamine H1 receptor
T2 construct: expressed in transfected cells
T2 sequence (P35367 whole entry): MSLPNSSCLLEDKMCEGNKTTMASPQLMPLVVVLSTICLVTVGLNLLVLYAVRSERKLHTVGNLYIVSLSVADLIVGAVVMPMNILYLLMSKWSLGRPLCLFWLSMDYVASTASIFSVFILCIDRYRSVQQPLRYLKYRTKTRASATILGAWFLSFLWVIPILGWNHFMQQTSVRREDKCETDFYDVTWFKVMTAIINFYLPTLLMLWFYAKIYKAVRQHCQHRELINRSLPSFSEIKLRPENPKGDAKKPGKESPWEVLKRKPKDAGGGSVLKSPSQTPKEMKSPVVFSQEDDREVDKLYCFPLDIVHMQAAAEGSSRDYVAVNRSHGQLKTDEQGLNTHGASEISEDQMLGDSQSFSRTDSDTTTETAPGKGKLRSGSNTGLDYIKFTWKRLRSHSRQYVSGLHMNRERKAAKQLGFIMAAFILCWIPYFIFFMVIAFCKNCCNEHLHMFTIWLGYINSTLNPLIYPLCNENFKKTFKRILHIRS
Source text: as §1

rat MCH1 receptor = biological target: T3, rat MCH1 receptor (Rattus norvegicus, UniProt P97639); experiment: Binding affinity (Ki) at the rat MCH1 receptor
T3 construct: expressed in transfected cells
T3 sequence (P97639 whole entry): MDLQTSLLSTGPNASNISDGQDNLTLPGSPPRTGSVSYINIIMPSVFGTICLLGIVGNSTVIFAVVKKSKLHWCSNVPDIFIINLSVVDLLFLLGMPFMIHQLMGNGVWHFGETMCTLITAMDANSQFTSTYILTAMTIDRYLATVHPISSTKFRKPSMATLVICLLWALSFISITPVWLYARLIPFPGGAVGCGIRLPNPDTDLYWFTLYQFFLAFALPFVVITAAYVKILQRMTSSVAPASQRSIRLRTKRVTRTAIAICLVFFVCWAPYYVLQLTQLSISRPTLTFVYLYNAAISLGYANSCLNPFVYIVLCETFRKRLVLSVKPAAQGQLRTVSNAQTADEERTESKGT
Protocol: For binding assays, pellets of transfected cells are suspended in ice-cold buffer (20 mM Tris.HCl, 5 mM EDTA, pH 7.4) and homogenized by sonication for 7 sec. The cell lysates are centrifuged at 200×g for 5 min at 4° C. The supernatants are then centrifuged at 40,000×g for 20 min at 4° C. The resulting pellets are washed once in the homogenization buffer and suspended in binding buffer (see methods for radioligand binding). Protein concentrations are determined by the method of Bradford (1976) using bovine serum albumin as the standard. Binding assays are usually performed immediately, however it is possible to prepare membranes in batch and store frozen in liquid nitrogen for future use.
Binding is performed at 25° C. for 1 hr. Incubations are terminated by rapid vacuum filtration over GF/C glass fiber filters, presoaked in 5% PEI using 50 mM Tris pH 7.4 containing 0.01% triton X-100 as wash buffer.
A methanolic solution of methyl (4S)-3-({[3-(4-[3-(acetylamino)phenyl]-3,6-dihydro-1(2H)pyridinyl)propyl]amino}carbonyl)-4-(3,4-difluorophenyl)-6-(methoxymethyl)-2-oxo-1,2,3,4-tetrahydro-5-pyrimidinecarboxylate was exposed to tritium gas at 1 atmosphere pressure in the presence of 5% palladium on carbon with stirring overnight to give the tritiated methyl (4S)-3-{[(3-{4-[3-(acetylamino)phenyl]-1-piperidinyl}propyl)amino]carbonyl}-4-(3,4-difluorophenyl)-6-(methoxymethyl)-2-oxo-1,2,3,4-tetrahydro-5-pyrimidinecarboxylate ((+)-isomer) After purification by reverse phase HPLC (Hypersil ODS, 4.6×100 mm, methanol:H2O:Et3N 10:90:1 to 100:0:1 in 15 min at 1.0 mL/min, with radiochemical and UV detection), this product was used as a radioligand in the MCH1 binding assays. The same procedure was carried out with H2 gas in place of ^3H2 to afford the non-radioactive version of Compound 10.

[3] = biological target: T4, human Dopamine D2 receptor (Homo sapiens, UniProt P14416); experiment: Binding affinity at the human dopamine D2 receptor; settings: Table 3c; read-out: hD2 Ki
T4 construct: purchased BioSignal, Inc. (Montreal, Canada)
T4 sequence (P14416 whole entry): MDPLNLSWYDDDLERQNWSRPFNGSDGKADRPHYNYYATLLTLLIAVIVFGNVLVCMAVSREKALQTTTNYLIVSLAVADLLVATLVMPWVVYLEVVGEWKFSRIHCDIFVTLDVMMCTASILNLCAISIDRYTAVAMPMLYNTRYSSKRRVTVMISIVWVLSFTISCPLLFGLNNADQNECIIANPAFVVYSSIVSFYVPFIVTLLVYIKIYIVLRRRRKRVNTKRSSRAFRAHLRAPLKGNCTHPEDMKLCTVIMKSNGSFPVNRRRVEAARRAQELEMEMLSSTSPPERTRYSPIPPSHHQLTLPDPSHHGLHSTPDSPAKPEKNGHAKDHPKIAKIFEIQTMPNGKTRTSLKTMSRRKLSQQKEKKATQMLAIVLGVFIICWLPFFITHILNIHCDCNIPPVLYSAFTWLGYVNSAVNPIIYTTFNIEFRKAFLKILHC
Source text: as §1

[4] = Table 3c, read-out: hAlpha-1a Ki
[5] = Examples 38-141, read-out: Ki (nM) rMCH1

SMILES | Ki [1, 4] [nM] | Ki ([2]; Table 3c, read-out: hH1 Ki) [nM] | Ki (rat MCH1 receptor; [5]) [nM] | Ki (rat MCH1 receptor; Table 3c, read-out: rMCH1 Ki) [nM] | Ki [3] [nM] | Ki [2] [nM] | Ki (rat MCH1 receptor) [nM] | Ki (rat MCH1 receptor; read-out: rMCH1 Ki, Table 3c) [nM] | Ki [1] [nM]
COC(CCN1CCC(c2cccc(NC(=O)C(C)C)c2)CC1)c1ccc(Cl)cc1 (stereo not drawn) [Example 91] | 533 | 2000 | 11.5 | 11.5 | 9650 |  |  |  | 
CC(C)C(=O)Nc1cccc(C2CCN(CCCCCCN3C(=O)c4ccccc4C3=O)CC2)c1 [Example 92] | 1490 | 2450 | 62 | 62 | 12000 |  |  |  | 
COC(CCN1CCC(c2cccc(NC(=O)C(C)C)c2)CC1)c1ccccc1 (stereo not drawn) [Example 93] | 1090 | 16700 | 29.1 | 29.1 | 35000 |  |  |  | 
CC(C)C(=O)Nc1cccc(C2CCN(CCCCN3C(=O)c4ccccc4C3=O)CC2)c1 [Example 94] | 1590 | 6590 | 18.2 | 18.2 | > 50000 |  |  |  | 
CC(C)C(=O)Nc1cccc(C2CCN(CCCCCN3C(=O)c4ccccc4C3=O)CC2)c1 [Example 95, N-(3-{1-[5-(1,3-dioxo-1,3-dihydro-2H-isoindol-2-yl)pentyl]-4-piperidinyl]phenyl)-2-methylpropanamide] | 2940 | 6400 | 11.8 | 11.8 | > 50000 |  |  |  | 
CC(C)C(=O)Nc1cccc(C2CCN(CCCCc3ccccc3)CC2)c1 [Example 96] | 12.3 | 273 | 50 | 50 | 7450 |  |  |  | 
COC(CCN1CCC(c2cccc(NC(=O)C(C)C)c2)CC1)c1ccc(C)cc1 (stereo not drawn) [Example 99] | 434 | 2560 | 12 | 12 | 10400 |  |  |  | 
CC(C)OC(CCN1CCC(c2cccc(NC(=O)C(C)C)c2)CC1)c1ccccc1 (stereo not drawn) [Example 100] | 704 | 11100 | 11.5 | 11.5 | 8670 |  |  |  | 
CC(C)C(=O)Nc1cccc(C2CCN(CCCC(c3ccc(F)cc3)c3ccc(F)cc3)CC2)c1 [Example 101] | 18 | 3.4 | 1.6 | 1.6 | 42.2 |  |  |  | 
CC(C)C(=O)Nc1cccc(C2CCN(Cc3cc(C(F)(F)F)cc(C(F)(F)F)c3)CC2)c1 [Example 103] | > 50000 | 36900 | 52 | 52 | > 50000 |  |  |  | 
COc1ccc(O[C@H](CCN2CCC(c3cccc(NC(=O)C(C)C)c3)CC2)c2ccccc2)cc1OC [Example 104] | 452 | 6390 | 6.7 | 6.7 | 735 |  |  |  | 
CC(C)C(=O)Nc1cccc(C2CCN(CC[C@H](Oc3ccccc3)c3ccccc3)CC2)c1 [Example 105] | 140 |  |  |  | 471 | 39.1 | 7.1 | 7.1 | 
COc1ccc(O[C@@H](CCN2CCC(c3cccc(NC(=O)C(C)C)c3)CC2)c2ccccc2)cc1 [Example 106] | 161 | 304 | 3.9 | 3.9 | 1080 |  |  |  | 
CC(C)C(=O)Nc1cccc(C2CCN(CC[C@H](Oc3cccc(Cl)c3)c3ccccc3)CC2)c1 [Example 107] | 33.5 | 130 | 3.1 | 3.1 | 152 |  |  |  | 
CC(C)C(=O)Nc1cccc(C2CCN(CC[C@H](Oc3ccc(Cl)cc3)c3ccccc3)CC2)c1 [Example 108] | 13.2 | 264 | 3.8 | 3.8 | 244 |  |  |  | 
CC(C)C(=O)Nc1cccc(C2CCN(CC[C@H](Oc3ccc(C(F)(F)F)cc3)c3ccccc3)CC2)c1 [Example 109] | 221 | 1320 | 7.1 | 7.1 | 191 |  |  |  | 
CC(C)C(=O)Nc1cccc(C2CCN(CC[C@@H](Oc3cc(F)ccc3F)c3ccccc3)CC2)c1 [Example 110] | 187 | 283 | 4.9 | 4.9 | 83 |  |  |  | 
CC(C)C(=O)Nc1cccc(C2CCN(CC[C@@H](Oc3ccc(Cl)c(Cl)c3)c3ccccc3)CC2)c1 [Example 111] | 125 | 1100 | 5 | 5 | 162 |  |  |  | 
CC(C)C(=O)Nc1cccc(C2CCN(CC[C@@H](Oc3ccccc3)c3ccccc3)CC2)c1 [Example 112] |  |  |  |  | 435 | 32.5 | 22.3 | 22.3 | 55
CC(C)C(=O)Nc1cccc(C2CCN(CC[C@@H](O)c3ccccc3)CC2)c1 [Example 113] | 3210 | 48700 | 16.6 | 16.6 | 42000 |  |  |  | 
CC(C)C(=O)Nc1cccc(C2CCN(CC[C@H](Oc3ccc(C#N)cc3)c3ccccc3)CC2)c1 [Example 114, N-(3-{1-[(3S)-3-(4-cyanophenoxy)-3-phenylpropyl]-4-piperidinyl}phenyl)-2-methylpropanamide] | 233 | 590 | 2.01 | 20.1 | 390 |  |  |  | 
COCC1=C(C(=O)OC)C(c2ccc(F)c(F)c2)N(C(=O)NCCCN2CCC(c3cc(F)ccc3OC)CC2)C(=O)N1 (stereo not drawn) [Example 115] | 49.1 | 46.9 | 12.9 | 12.9 | 262 |  |  |  | 
CC(C)C(=O)Nc1cccc(C2CCN(CC[C@H](Oc3ccc(Br)cc3)c3ccccc3)CC2)c1 [Example 116] | 22.3 | 546 | 0.923 | 0.923 | 52 |  |  |  | 
COc1cccc(O[C@@H](CCN2CCC(c3cccc(NC(=O)C(C)C)c3)CC2)c2ccccc2)c1 [Example 117] | 310 | 969 | 13.6 | 13.6 | 281 |  |  |  | 
COc1cc(C#N)ccc1O[C@@H](CCN1CCC(c2cccc(NC(=O)C(C)C)c2)CC1)c1ccccc1 [Example 118] | 719 | 25300 | 12.8 | 12.8 | 319 |  |  |  | 
COc1ccc(C(C)=O)cc1O[C@@H](CCN1CCC(c2cccc(NC(=O)C(C)C)c2)CC1)c1ccccc1 [Example 119] | 1060 | 25300 | 22.4 | 22.4 | 766 |  |  |  | 
CC(=O)c1ccccc1O[C@H](CCN1CCC(c2cccc(NC(=O)C(C)C)c2)CC1)c1ccccc1 [Example 120] | 1140 | 6990 | 14.8 | 14.8 | 313 |  |  |  | 
CC(C)C(=O)Nc1cccc(C2CCN(CC[C@@H](Oc3cc(C(F)(F)F)ccc3F)c3ccccc3)CC2)c1 [Example 121] | 1720 | 9390 | 17 | 17 | 331 |  |  |  | 
CC(C)C(=O)Nc1cccc(C2CCN(CC[C@H](Oc3cc(C(F)(F)F)ccc3F)c3ccccc3)CC2)c1 [Example 122] | 944 | 3470 | 3.3 | 3.3 | 132 |  |  |  | 
CC(C)C(=O)Nc1cccc(C2CCN(CC[C@H](Oc3cc(F)ccc3F)c3ccccc3)CC2)c1 [Example 123] | 511 | 2150 | 5.9 | 5.9 | 133 |  |  |  | 
